Source: patent US8552052B2, “Use of diindolylmethane-related indoles for the treatment and prevention of respiratory syncytial virus associated conditions” (BioResponse, L.L.C., priority 2004, dated 2013)
“Also recorded” adds a separate entry of the source.

Experiments:
RSV Long strain = assay: Pulmonary histopathology in RSV infected BALB/c mice; format: in vivo; conditions: DIM administered orally or parenterally
Description: (§1) The Following Experimental BALB/c Groups and Treatment Protocol Using DIM were Studied: • 1. RSV infected positive control group, infected with RSV and injected subcutaneously (SC) once daily with DMSO/Phosphate Buffered Saline (PBS) vehicle. • 2. RSV infected, Low dose Parenteral DIM group (15 mg/kg/day), injected SC once daily with DIM suspension • 3. RSV infected, High dose DIM Group (150 mg/kg/day), injected SC once daily with DIM suspension • 4. RSV infected, orally treated DIM group (250 mg/kg/day from absorption enhanced DIM [Example 6.1]), added to powdered feed • 5. Uninfected negative control group, nasally administered vehicle only, and injected subcutaneously (SC) once daily with DMSO/PBS vehicle
(§2) Mouse treatment, infection and harvest. […]
(§3) To determine viral titer, the lung was homogenized in DMEM supplemented with 2% FBS (2 ml DMEM per 100 mg tissue) in cold. […] Multiple, 4 μm thick sections were stained with haematoxylin & eosin (H&E) and scored for cellular inflammation under light microscopy by two independent researchers. Inflammatory infiltrates were scored by enumerating the layers of inflammatory cells surrounding the vessels and bronchioles. […] A total of about 20 spaces per lung were counted for each animal. […] The concentration of cysteinyl leukotrienes conjugates in the BALF was determined by an ELISA kit following the manufacturer's protocol (R&D Systems, Minneapolis, Minn.). […]

[1] = system: apoptosis-specific nucleosomes; assay: Nucleosome ELISA in lung of RSV infected BALB/c mice; format: in vivo; conditions: oral and subcutaneous DIM, FIG. 5B
Description: as §1
Mouse treatment, infection and harvest. Intranasal application of RSV in BALB/c mice followed an established procedure (Bitko et al., 2005, Nat Med. 11(1):50-5) and causes predictable pulmonary disease and inflammation. For RSV infection, RSV stock was diluted such that each mouse was given 10^7 pfu (plaque forming unit) of the virus intranasally. […]
Nucleosomes released in the cytoplasm during apoptosis were detected by a nucleosome ELISA assay kit (Calbiochem Nucleosome ELISA kit, Cat. No. QIA25, San Diego, Calif.) according to the manufacturer's protocol (User Protocol Q1A25 Rev. 28 Sep. 2005 RFH).

cysteinyl leukotrienes = assay: Cysteinyl leukotrienes ELISA in bronchoalveolar lavage fluid (BALF) of RSV infected BALB/c mice; format: in vivo; conditions: oral, SC low dose and SC high dose DIM; 6 and 10 days pi; vs RSV-infected, untreated mice; FIG. 7
Description: as §1, §2, §3

breast cancer cells = conditions: cited from earlier work
[2] = system: Mitogen Activated Protein Kinase (MAPK) cell signaling pathway; conditions: cell culture; cited from earlier work
bRSV = assay: Experimental bovine Respiratory Syncytial Virus (bRSV) infection in calves; format: in vivo, Male Jersey calves; conditions: vs vehicle only treated positive control animals
Caspase-3 = Caspase-3 activation in RSV infected A549 cell culture; format: cell-based, human; conditions: RSV infected A549 cells; DIM 70, 210, and 700 nM
[3] = system: chemically induced forms of breast cancer; conditions: orally administered, animals; cited from earlier work
[4] = system: Recombinant RSV virus producing green fluorescent protein (gRSV); assay: Intracellular RSV growth, real-time fluorescence of GFP-producing RSV (gRSV) in A549 cells; format: cell-based, Respiratory Syncytial Virus; conditions: cultured A549 cells; beginning 12 hours after addition of nM DIM (70, 210, 700 nM); FIG. 3
From the text: Levels of Intracellular RSV Growth—A real-time fluorescence measurement of live infected cells was utilized to determine the intracellular levels of RSV. Quantitation of real-time RSV growth in live cells was accomplished using a strain of RSV virus which produces florescent protein. Recombinant RSV virus producing green fluorescent protein (GFP) (‘green RSV’, abbreviated as ‘gRSV’) was kindly provided by Dr. Mark Peeples (Columbus Children's Res. Inst., Ohio). A549 cell monolayers were infected with the gRSV in the presence of indicated concentrations of DIM, and were periodically observed by fluorescence microscopy. For quantification, the fluorescence was measured in a standard plate-reader.

[5] = system: estrogen-dependent and independent breast cancer cells; conditions: isolated DIM in cell culture; cited from earlier work

Compound: c1ccc2c(Cc3c[nH]c4ccccc34)c[nH]c2c1 [DIM, 3,3′-diindolylmethane]
- severity in lung pathology (RSV Long strain): reduced severity in lung pathology
- apoptosis in mouse lung: apoptosis-specific nucleosomes [1]: increased presenence of apoptosis-specific nucleosomes
- leukotrienes in broncho-alveolar lung fluid (BALF) (cysteinyl leukotrienes): significant reduction in leukotriene levels; also recorded: Reduction in pulmonary leukotriene levels; also recorded: significantly lower levels of lung inflammation associated leukotrienes
- estrogenic activity (breast cancer cells): estrogenic
- MAPK cell signaling pathway activation [2]: activate the Mitogen Activated Protein Kinase (MAPK) cell signaling pathway
- evidence of active bRSV infection (bRSV): less evidence of active bRSV infection
- time of culture at which apoptosis specific Caspase-3 is activated (Caspase-3): less than 12 hrs
- tumor growth [3]: inhibits the growth of certain chemically induced forms of breast cancer
- intracellular RSV activity (growth) [4]: reduced intracellular RSV growth; also recorded: significantly reduced
- apoptosis effects [5]: apoptosis promoting effects
